In patent US20030228621A1, “Common ligand universal enzyme assay and compositions for use therein” (priority 2002, published 2003):

Key:
[1] = target: dihydrodipicolinate reductase (DHPR) (Escherichia coli, UniProt P04036); experiment: Fluorescence polarization binding of FITC-NADH titrated with dihydrodipicolinate reductase (FIG. 4); settings: 25 nM FITC-NADH, 20 mM Potassium Phosphate, pH 7.4, or 20 mM HEPES, pH 7.8, fit of mP vs Log(DHPR)
Experimental: This example illustrates the determination of the concentration of FITC-NADH that would provide the best signal to noise ratio for fluorescence polarization assay. FITC-NADH was dissolved in 10 mM TAPS buffer with 5% NaHCO3, pH=8. The final concentration of FITC-NADH was 150 μM. In later experiments 150 μM FITC-NADH was diluted to the desired concentration in 20 mM Potassium Phosphate buffer, pH=7.4. Fluorescence polarization was monitored using a Beacon 2000 Variable Temperature Fluorescence Polarization System (PanVera Corporation, Madison, Wis.) and an LJL Analyst HT 96-384 (Molecular Devices Corporation, Sunnyvale, Calif.). The concentration of FITC-NADH as fluorescent tracer was selected by measuring fluorescence polarization of varying concentrations of FITC-NADH in 10 mM Potassium Phosphate buffer, pH=7.4. The concentration range was 0.15 nM—15 nM. For the best signal to noise ratio regarding both the horizontal and vertical intensities that contribute to the fluorescence polarization value, a concentration of 25 nM was chosen for FITC-NADH in the majority of experiments.
This example illustrates the binding characteristics of FITC-NADH to various dehydrogenases. […] An individual blank of protein in buffer was measured for each point. […] FITC-NADH was added to the test tubes and the fluorescence polarization measurement was taken. […]

[2] = Stability of dehydrogenases and FITC-NADH by fluorescence polarization over time; type: physicochemical; settings: 1.5 nM FITC-NADH with EACPR, GAPDH or DHPR
Experimental: The fluorescence polarization of solutions of 10 μM enoyl ACP reductase, 5.6 μM glyceraldehyde-3-phosphate dehydrogenase and 10 μM dihydrodipicolinate reductase with 1.5 nM FITC-NADH, was measured. The concentration of the dehydrogenase was such that the solution of dehydrogenase and FITC-NADH would give the polarization mP value of 70-80. The blank was a solution of protein in buffer. Fluorescence polarization measurements were taken for 2 hours at 5 minute intervals.

Chain of dihydrodipicolinate reductase (DHPR) (P04036 whole entry): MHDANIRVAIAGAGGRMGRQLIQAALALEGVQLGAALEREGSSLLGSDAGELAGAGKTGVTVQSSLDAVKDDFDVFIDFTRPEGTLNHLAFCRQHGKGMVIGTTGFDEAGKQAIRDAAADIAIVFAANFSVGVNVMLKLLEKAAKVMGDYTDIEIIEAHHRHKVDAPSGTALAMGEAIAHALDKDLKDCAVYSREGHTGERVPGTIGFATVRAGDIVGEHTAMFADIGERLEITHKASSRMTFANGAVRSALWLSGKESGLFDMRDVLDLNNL

## NC(=O)C1=CN(C2OC(COP(=O)(O)OP(=O)(O)OCC3OC(n4cnc5c(NCCNC(=S)Nc6ccc(-c7c8ccc(=O)cc-8oc8cc(O)ccc78)c(C(=O)O)c6)ncnc54)C(O)C3O)C(O)C2O)C=CC1 (centres unmarked) [FITC-NADH, fluorescein isothiocyano-N^6-(2-aminoethyl)-NADH]
[1]
  Kd: 1400 ± 100 nM
[2]
  time stable in fluorescence polarization assay: 100 min
